The text below walks through data of US20230150951A1, “2,5- OR 2,6-DISUBSTITUTED HYDROQUINONE DERIVATIVES WITH AT LEAST ONE CARBOXY, SULFO OR AMIDO GROUP USEFUL AS MEDICAMENTS” (OM PHARMA SA, priority 2020, published 2023).

Entries after “also recorded” stand apart in the source; their conditions may differ.

The test system of the data set is acute pancreatitis murine model. Kind of data set: Caerulein-induced acute pancreatitis murine model. Format: in vivo, Balb/c mice. Also on record: Serum IL33 level / Serum TGF-B level: unit not given here. The note with it: for Acinar cell necrosis (group mean score) / Haemorrhage (group mean score) / Interstitial oedema (group mean score) / Mean terminal BW (% of initial) / Mean terminal pancreas weight / Pancreas histopathology observations (H&E) / Schmidt Score (H&E) / Pancreas IL33 level / Pancreas MPO activity / Pancreas TGF-B level / Serum IL33 level / Serum TGF-B level / Serum amylase level / Serum lipase level / Leukocyte infiltration (group mean score): 1st experiment, 15 mg/kg IV, Ib-010a and IVc-059a 150 mg/kg PO, Pirfenidone 40 mg/kg IV; for Acinar cell necrosis (group mean score) / Haemorrhage (group mean score) / Interstitial oedema (group mean score) / Mean terminal BW (% of initial) / Mean terminal pancreas weight / Pancreas histopathology observations (H&E) / Schmidt Score (H&E) / Leukocyte infiltration (group mean score): caerulein induced; for Schmidt Score (H&E): induced + vehicle = 10, non-induced = 0; for Pancreas IL33 level / Pancreas MPO activity / Pancreas TGF-B level: terminal pancreatic tissue; for Serum IL33 level / Serum TGF-B level / Serum amylase level / Serum lipase level: terminal serum; for pancreatic tissue levels of IL33: compared to the induced group; for Lipase activity in serum: pirfenidone 100 mg/kg, compounds 15 mg/k, vs vehicle treated animals. Here is the method:
Therapeutic efficacy of the compounds according to the present invention was assessed on an acute pancreatitis murine model. Tissue samples were obtained to allow post in-life analysis of pancreatitis parameters. Plasma samples were also obtained to assess animal exposure levels after administration of the compounds.
Animals: A total of 70 female Balb/c mice aged 8-10 weeks weighing approximately 20-25 g were used for the study (Charles River). After 7 days acclimatization, they were allocated into the different groups. […] Cages, bedding, and water were sanitized before use. Animals were provided with Corn-o-cobs enrichment bedding to provide environment enrichment and nesting material. […] The animal holding room were maintained as follows—room temperature at 20-24° C., humidity at 30-70% and a 12 h light/dark cycle used. Although animals used in this study were immuno-competent, preparation of dosing solutions and dosing/weighing of animals were carried out in a sterile biosafety cabinet.
Final formulation was in 5% DMSO, 10% Solutol, 10% PEG400, 75% 0.9% Saline and pH adjusted to 7 with 0.5M NaOH solution.
Final formulation is in 5% DMSO, 10% Solutol, 10% PEG400, 75% 0.9% Saline and pH adjusted to 7 with 0.5M NaOH solution. For per os (PO) dosing IVc-059a is formulated in water. Drug solutions were formulated on the day of dosing.
The purposes of this study were to assess efficacy compounds in an acute pancreatitis model (14 days), generate tissue samples to allow post in-life analysis of pancreatitis parameters and generate four plasma samples to assess animal exposure levels after first and last injection obtained from blood samples taken 1 h and 24 h after first and last injection.
Study Design: On the first study day animals were randomly be assigned to treatment groups, ensuring an equal spread of bodyweight. Mice (except negative control group) were treated with test compounds were given 5 minutes prior to caerulein dosing, followed by injection with caerulein at […] via intraperitoneal route (IP) daily during the study.
Treatment of test compounds were given 5 minutes prior to caerulein dosing.
Sampling and post in-life analyses: at times indicated above a whole blood sample (60 μl) were taken from the lateral tail vein into tubes coated with K2-EDTA. Plasma samples were prepared and stored frozen at −20° C. Plasma samples were sent to client bioanalysis provider Eurofins (FR) for quantification of compound.
Terminal Sampling: Prior to termination animals were weighed. Terminal study animals were culled via CO2 inhalation. A terminal blood sample was taken via cardiac puncture and plasma prepared. Lipase and Amylase activities were measured via ELISA using commercially available ELISA kits. Remaining plasma was stored for future cytokine analyses. Pancreas tissue was resected and weighed, and a section ([…]) snap frozen and analysed for quantification of compound in pancreas sample. A section ([…]) was processed for measurement of MPO activity, IL-33 and TGF-B levels via ELISA. The remainder was fixed in formalin and embedded in paraffin wax. H&E staining was carried out and section assessed using Schmidts standard scoring system, examining: edema, inflammatory infiltration, parenchymal necrosis, haemorrhage. Massons' Trichrome staining was carried out and area covered by fibrotic tissue quantified digitally using QuPath software. Terminal serum samples was used to assess blood chemistry using an IdeXX CHEM15 and LYTE4 clip (4 animals per treatment group).
Histopathology assessment of pancreatic injury based on 4 criteria: Oedema, Inflammatory infiltration, Parenchymal necrosis, Haemorrhage and scored as described below.
Schmidt score is the evaluation of the efficacy of the compounds based on the four histopathology criteria as described in the table below.

Setting [1] is: second experiment, IV, 15 mg/kg, Pirfenidone 100 mg/kg.

As to `O=C(O)c1cc(O)c(CN(Cc2cc(O)c(C(=O)O)cc2O)Cc2cc(O)c(C(=O)O)cc2O)cc1O` [IIIc-061a, Tris(4-carboxy-2,5-dihydroxyphenylmethyl)amine], the “Acinar cell necrosis (group mean score)” value is given as 0.5, the “Haemorrhage (group mean score)” value is 1.0, the “Interstitial oedema (group mean score)” value came out at 1.0 and the “Mean terminal BW (% of initial)” value is 91.4 % of initial. Further, the “Mean terminal pancreas weight” value came to 0.086 g, the “Pancreas histopathology observations (H&E)” value is “Mild oedema observed; also recorded: Mild haemorrhage observed; also recorded: Mild acinar cell necrosis observed; also recorded: Mild leukocyte infiltration observed; also recorded: Normal islet morphology observed”, the “Schmidt Score (H&E)” value is given as 3.5 and the “Pancreas IL33 level” value is reported as 177 ± 80. Besides, the “Pancreas MPO activity” value turned out to be 2.13, the “Pancreas TGF-B level” value worked out at 295 ± 146, the “Serum IL33 level” value stood at 33.72 and the “Serum TGF-B level” value is reported as 4.65. For the same compound, the Serum amylase level came out at 38.38 and the Serum lipase level worked out at 9.79. Also, where the note is “first experiment, IV”, the “TGF-B levels in pancreas” value is listed as “decreased significantly” and the “pancreatic tissue levels of IL33” value is recorded as “significant decrease”. The “Global Schmidt score” value (first experiment, vs caerulein control animals) is “especially improved”. Moreover, the Schmidt Score entry (second experiment, H&E sections) was “lower scores than the positive control pirfenidone”. In addition, under “second experiment”, the “Lipase activity in serum” value is reported as “significantly lower than that in vehicle treated animals”. The “MPO activity in pancreatic tissue” value (second experiment, vs induced vehicle treated controls) was “significantly lower than induced vehicle treated controls”.

Take `O=C(O)c1cc(O)c(C(=O)Nc2ccccc2C(=O)O)cc1O` [Ia-001a, 4-(2-carboxyphenylaminocarbonyl)-2,5-dihydroxybenzoic acid]: the “Acinar cell necrosis (group mean score)” value was found to be 0.9, the “Haemorrhage (group mean score)” value is 1.1, the “Interstitial oedema (group mean score)” value was 1.3 and the “Leukocyte infiltration (group mean score)” value (shortened to “Leukocyte infiltration”) is reported as 3.0. Also, the “Mean terminal BW (% of initial)” value was 90.3 % of initial, the “Mean terminal pancreas weight” value turned out to be 0.083 g, the “Pancreas histopathology observations (H&E)” value is given as “Oedema observed throughout pancreas; also recorded: Haemorrhage observed; also recorded: Mild acinar cell less necrosis observed; also recorded: Leukocyte infiltration throughout; also recorded: Abnormal islet morphology observed; also recorded: Disruption to the basophilic region” and the “Schmidt Score (H&E)” value is 6.3. The “Pancreas IL33 level” value turned out to be 330 ± 162, the “Pancreas MPO activity” value worked out at 3.76, the “Pancreas TGF-B level” value was found to be 592 ± 358 and the “Serum IL33 level” value was 39.52. The “Serum TGF-B level” value came out at 8.69, the Serum amylase level is reported as 34.07 and the Serum lipase level worked out at 6.72. Besides, where the note is “first experiment, IV”, the “pancreatic tissue levels of IL33” value is “significant decrease”.

Regarding `O=C(O)c1cc(O)c(C(=O)Nc2ccccc2-c2nnn[nH]2)cc1O` [Ia-001a-Tz, 4-(2-(1H-tetrazol-5-yl)phenyl-aminocarbonyl)-2,5-dihydroxybenzoic acid], the “Mean terminal BW (% of initial)” value is recorded as 89.1 % of initial, the “Mean terminal pancreas weight” value is listed as 0.084 g, the “Schmidt Score (H&E)” value was found to be 5.9 and the “Pancreas IL33 level” value is 154 ± 49. Besides, the “Pancreas MPO activity” value was 2.68, the “Pancreas TGF-B level” value worked out at 507 ± 289, the “Serum IL33 level” value came to 37.02 and the “Serum TGF-B level” value is given as 8.69. This compound showed a Serum amylase level of 35.35 and a Serum lipase level of 8.57. The “pancreatic tissue levels of IL33” value (first experiment, IV) is reported as “significant decrease”.

Under setting [1], `O=C(O)c1cc(NC(=O)c2cc(O)c(C(=O)O)cc2O)cc(C(=O)O)c1` [Ia-015a, 5-(4-carboxy-2,5-dihydroxybenzamido)isophthalic acid] gave an Amylase of 51.669 mU/mL, an IL-33 of 398 ± 148 ng/mL, a Lipase of 5.31 mU/mL and an MPO of 2.68 ± 0.6 U/mg. Under setting [1], the “Schmidt Score” value turned out to be 4.6 ± 0.8, the TGF-B was found to be 547 ± 373 ng/mL and the “Trichome staining (Fibrosis % area)” value is on record as 1.704 ± 1.621 % area. The “Lipase activity in serum” value (second experiment) is recorded as “significantly lower than that in vehicle treated animals”.

In the case of `O=C(O)c1cc(NC(=O)c2cc(O)c(C(=O)O)cc2O)cc(NC(=O)c2cc(O)c(C(=O)O)cc2O)c1` [Ib-010a, 3,5-bis(2,5-dihydroxy-4-carboxybenzoylamino)benzoic acid], the “Acinar cell necrosis (group mean score)” value was found to be 1.0, the “Haemorrhage (group mean score)” value is recorded as 0.8, the “Interstitial oedema (group mean score)” value was determined as 1.5 and the “Leukocyte infiltration” value was found to be 3.0. For the same compound, the “Mean terminal BW (% of initial)” value is 91 % of initial; the “Mean terminal pancreas weight” value is listed as 0.091 g; the “Pancreas histopathology observations (H&E)” value was “Oedema observed throughout pancreas and within; also recorded: Mild haemorrhage observed; also recorded: Mild acinar cell necrosis observed; also recorded: Leukocyte infiltration observed; also recorded: Disruption to the basophilic region”; the “Schmidt Score (H&E)” value is on record as 6.3. Moreover, the “Pancreas IL33 level” value is 157 ± 70, the “Pancreas MPO activity” value is recorded as 1.83, the “Pancreas TGF-B level” value is on record as 219 ± 140 and the “Serum IL33 level” value amounted to 35.36. Further, the “Serum TGF-B level” value was determined as 6.87, the Serum amylase level came out at 37.46 and the Serum lipase level was found to be 9.06. Where the note is “first experiment, IV”, the “TGF-B levels in pancreas” value is listed as “decreased significantly” and the “pancreatic tissue levels of IL33” value is reported as “significant decrease”.

In the case of `O=C(O)c1cc(NC(=O)c2cc(O)c(C(=O)Nc3ccccc3-c3nnn[nH]3)cc2O)ccc1O` [Ic-001a-Tz/004a, 5-(4-(2-(1H-tetrazol-5-yl)phenylaminocarbonyl)-2,5-dihydroxybenzamido)-2-hydroxy benzoic acid], the “Acinar cell necrosis (group mean score)” value came out at 1.5, the “Haemorrhage (group mean score)” value amounted to 1.0, the “Interstitial oedema (group mean score)” value was 1.6 and the “Leukocyte infiltration” value was found to be 2.8. The “Mean terminal BW (% of initial)” value was 93.5 % of initial, the “Mean terminal pancreas weight” value worked out at 0.104 g, the “Pancreas histopathology observations (H&E)” value is given as “Oedema observed throughout pancreas; also recorded: Mild haemorrhage observed; also recorded: Acinar cell necrosis observed; also recorded: Leukocyte infiltration throughout; also recorded: Disruption to the basophilic region” and the “Schmidt Score (H&E)” value is listed as 6.9. Besides, the “Pancreas IL33 level” value is given as 180 ± 54, the “Pancreas MPO activity” value worked out at 2.15, the “Pancreas TGF-B level” value came to 369 ± 195 and the “Serum IL33 level” value is listed as 35.43. Further, the “Serum TGF-B level” value is 8.99, the Serum amylase level is reported as 36.51 and the Serum lipase level was 8.21. Besides, the “pancreatic tissue levels of IL33” value (first experiment, IV) was “significant decrease”.

With `O=C(Nc1ccccc1-c1nnn[nH]1)c1cc(O)c(C(=O)Nc2ccccc2-c2nnn[nH]2)cc1O` [Ic-001aTz2, N1,N4-bis(2-(1H-tetrazol-5-yl)phenyl)-2,5-dihydroxyterephthalamide], under setting [1], the Amylase is 50.912 mU/mL, the IL-33 was 493 ± 126 ng/mL, the Lipase is recorded as 8.305 mU/mL and the MPO is reported as 2.63 ± 0.63 U/mg. Further, under setting [1], the “Schmidt Score” value came to 3.9 ± 0.8, the TGF-B turned out to be 696 ± 448 ng/mL and the “Trichome staining (Fibrosis % area)” value is recorded as 1.366 ± 0.562 % area.
